Patent publication US12150995B2, “IRAK degraders and uses thereof” (Kymera Therapeutics, Inc., priority 2020, dated 2024)

Molecular target: T1, IRAK4 (Homo sapiens, UniProt Q9NWZ3)
T1 construct: endogenous in cells; host or cells: OCI-LY10
T1 sequence (Q9NWZ3 1-460): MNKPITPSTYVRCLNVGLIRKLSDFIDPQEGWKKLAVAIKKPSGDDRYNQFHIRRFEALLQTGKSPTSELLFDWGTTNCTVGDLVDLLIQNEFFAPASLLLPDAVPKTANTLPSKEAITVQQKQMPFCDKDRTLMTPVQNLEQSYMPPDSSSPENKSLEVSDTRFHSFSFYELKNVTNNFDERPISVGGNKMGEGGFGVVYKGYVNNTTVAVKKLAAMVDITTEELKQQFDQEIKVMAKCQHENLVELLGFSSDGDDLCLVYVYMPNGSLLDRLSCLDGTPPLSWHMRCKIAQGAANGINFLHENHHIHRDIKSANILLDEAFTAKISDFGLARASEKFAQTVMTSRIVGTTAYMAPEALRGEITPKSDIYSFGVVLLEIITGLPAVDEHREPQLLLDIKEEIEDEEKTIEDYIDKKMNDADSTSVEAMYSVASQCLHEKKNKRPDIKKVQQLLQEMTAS
Experiment: IRAK4 MSD Degradation in OCI-LY10
Assay type: cell-based
Conditions: OCI-LY10 cells, Meso Scale Discovery, incubated 4 to 24 hours
How it was run: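 OCI-LY10 cells (300,000/well) exposed to an 8-point 1:3 series from a top concentration of 1 to 10 μM for 4 to 24 h at 37 °C. IRAK4 remaining in RIPA lysates quantified by MSD sandwich immunoassay; DC50 from a three-parameter logistic fit.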

| SMILES | DC50 |
| --- | --- |
| COc1cc2nn([C@H]3CC[C@H](CN4CCN(c5cccc6c(N7CCC(=O)NC7=O)cncc56)CC4)CC3)cc2cc1NC(=O)c1cncc(C(F)(F)F)n1 [I-299] | < 10 nM |
| O=C1CCN(c2cncc3c(N4CCN(C[C@H]5CC[C@H](n6cc7cc(NC(=O)c8cccc(C(F)(F)F)n8)c(C(F)F)cc7n6)CC5)CC4)cccc23)C(=O)N1 [I-371] | < 10 nM |
| CC(C)Nc1c(C(=O)N[C@H]2CC[C@H](CN3CCN(c4cccc5c(N6CCC(=O)NC6=O)cncc45)CC3)CC2)cnc2c1Oc1ccc(C#N)cc1O2 [I-408] | > 200 nM |
| CC(C)Nc1cc(-n2ccc3cc(C#N)cnc32)ncc1C(=O)NC[C@H]1CC[C@H](CN(C)C2CCN(c3cccc4c3n(C)c(=O)n4C3CCC(=O)NC3=O)CC2)CC1 (some centres unmarked) [I-105] | 50 to 100 nM |
| Cc1ccc2c(c1C1CCN(C[C@H]3CC[C@H](n4cc5cc(NC(=O)c6cccc(C(F)(F)F)n6)ccc5n4)CC3)CC1)n(C)c(=O)n2C1CCC(=O)NC1=O (some centres unmarked) [I-99] | < 10 nM |
| COc1ccc2c(c1C1=CCN(C[C@H]3CC[C@H](n4cc5cc(NC(=O)c6cccc(C(F)(F)F)n6)ccc5n4)CC3)CC1)n(C)c(=O)n2C1CCC(=O)NC1=O (some centres unmarked) [I-355] | < 10 nM |
| Cc1c(C2CCN(C[C@H]3CC[C@H](n4cc5cc(NC(=O)c6cccc(C(F)(F)F)n6)ccc5n4)CC3)CC2)ccc2c1n(C)c(=O)n2C1CCC(=O)NC1=O (some centres unmarked) [I-202] | > 200 nM |
| COc1cc2nn([C@H]3CC[C@H](CN4CCN(c5cccc6c(N7CCC(=O)NC7=O)cncc56)CC4)CC3)cc2cc1NC(=O)c1ccnc(C(F)(F)F)n1 [I-300] | 10 to 50 nM |
| CC(C)Nc1c(C(=O)N[C@H]2CC[C@H](CN3CCN(c4cccc5c4n(C)c(=O)n5C4CCC(=O)NC4=O)CC3)CC2)cnc2c1Oc1cc(C#N)ccc1O2 (some centres unmarked) [I-407] | < 10 nM |
| Cn1c(=O)n(C2CCC(=O)NC2=O)c2cc(F)cc(C3CCN(C[C@H]4CC[C@H](n5cc6cc(NC(=O)c7cccc(C(F)(F)F)n7)c(F)cc6n5)CC4)CC3)c21 (some centres unmarked) [I-26] | < 10 nM |
| Cc1cc2nn([C@H]3CC[C@H](CN4CCC(c5cccc6c5n(C)c(=O)n6C5CCC(=O)N(C)C5=O)CC4)CC3)cc2cc1NC(=O)c1cccc(C(F)(F)F)n1 (some centres unmarked) [I-403] | > 200 nM |
| COc1cc2nn([C@H]3CC[C@H](CN4CCN(c5ccc(F)c6c(N7CCC(=O)NC7=O)cncc56)CC4)CC3)cc2cc1NC(=O)c1cccc(C(F)(F)F)n1 [I-311] | < 10 nM |
| CC(C)Nc1cc(-n2ccc3cc(C#N)cnc32)ncc1C(=O)N1CCC(CN(C)C2CCN(c3cccc4c3n(C)c(=O)n4C3CCC(=O)NC3=O)CC2)CC1 (centres unmarked) [I-115] | > 200 nM |
| Cc1nc(C(=O)Nc2cc3cn([C@H]4CC[C@H](CN5CCC(c6cccc7c6n(C)c(=O)n7C6CCC(=O)N(C)C6=O)CC5)CC4)nc3cc2C(C)(C)O)co1 (some centres unmarked) [I-60] | > 200 nM |
| CN(C[C@H]1CC[C@H](n2cc3cc(NC(=O)C4CC4)c(C(C)(C)O)cc3n2)CC1)C1CCN(Cc2cccc3c2n(C)c(=O)n3C2CCC(=O)NC2=O)CC1 (some centres unmarked) [I-1] | > 200 nM |
| O=C1CCN(c2cncc3c(C4CCN(C[C@H]5CC[C@H](n6cc7cc(NC(=O)c8cccc(C(F)(F)F)n8)c(C(F)F)cc7n6)CC5)CC4)cccc23)C(=O)N1 [I-293] | < 10 nM |
| C[C@@H]1CN(c2cccc3c(N4CCC(=O)NC4=O)cncc23)CCN1C[C@H]1CC[C@H](n2cc3cc(NC(=O)c4cccc(C(F)(F)F)n4)c(C(C)(C)O)cc3n2)CC1 [I-230] | < 10 nM |
| C[C@H]1CN(c2cccc3c2n(C)c(=O)n3C2CCC(=O)NC2=O)CCN1C[C@H]1CC[C@H](n2cc3cc(NC(=O)c4cccc(C(F)(F)F)n4)ccc3n2)CC1 (some centres unmarked) [I-248] | < 10 nM |
| COc1cc2nn([C@H]3C[C@H](CN4CCC(c5cccc6c(N7CCC(=O)NC7=O)cncc56)CC4)C3)cc2cc1NC(=O)c1cccc(C(F)(F)F)n1 [I-91] | 10 to 50 nM |
| Cc1cc2nn([C@H]3CC[C@H](CN4C5CC4CN(c4cccc6c4n(C)c(=O)n6C4CCC(=O)NC4=O)C5)CC3)cc2cc1NC(=O)c1cccc(C(F)(F)F)n1 (some centres unmarked) [I-396] | 10 to 50 nM |

Other lines, results leading:

| DC50 | SMILES |
| --- | --- |
| > 200 nM | COc1cc2nn([C@H]3CC[C@H](CN4CCC(c5cccc6c5n(C)c(=O)n6C5CCC(=O)NC5=O)CC4)CC3)cc2cc1NC(=O)c1cnc(C#N)c(Cl)c1 (some centres unmarked) [I-136] |
| 10 to 50 nM | CC(C)(O)c1cc2nc([C@H]3CC[C@H](CN4CCN(CCCNc5cccc6c5C(=O)N(C5CCC(=O)NC5=O)C6=O)CC4)CC3)sc2cc1NC(=O)c1cccc(C#N)n1 (some centres unmarked) [I-440] |
| < 10 nM | Cn1c(=O)n(C2CCC(=O)NC2=O)c2cccc(C3CCN(C[C@H]4CC[C@H](n5cc6cc(NC(=O)c7cccc(C(F)(F)F)n7)c(C7CC7)cc6n5)CC4)CC3)c21 (some centres unmarked) [I-69] |
| > 200 nM | COc1cc2nc([C@H]3CC[C@H](CN4CCC5(CC4)CC(CCNc4cccc6c4C(=O)N(C4CCC(=O)NC4=O)C6=O)C5)CC3)oc2cc1NC(=O)c1cnn2cccnc12 (some centres unmarked) [I-7] |
| < 10 nM | Cn1c(=O)n(C2CCC(=O)NC2=O)c2cccc(N3CCN(C[C@H]4CC[C@H](n5cc6cc(NC(=O)c7cccc(C(F)(F)F)n7)c(N7C[C@H]8C[C@@H]7CO8)cc6n5)CC4)CC3)c21 (some centres unmarked) [I-384] |
| < 10 nM | CC(C)Nc1cc(-n2ccc3cc(C#N)cnc32)ncc1C(=O)N[C@H]1CC[C@H](CN2CCN(c3cccc4c3n(C)c(=O)n4C3CCC(=O)NC3=O)CC2)CC1 (some centres unmarked) [I-361] |
| 10 to 50 nM | Cn1c(=O)n(C2CCC(=O)NC2=O)c2ccc(Cl)c(C3CCN(C[C@H]4CC[C@H](n5cc6cc(NC(=O)c7cccc(C(F)(F)F)n7)ncc6n5)CC4)CC3)c21 (some centres unmarked) [I-88] |
| 100 to 200 nM | CN(CCNc1cccc2c1C(=O)N(C1CCC(=O)NC1=O)C2=O)C(=O)[C@H]1CC[C@H](c2nc3cc(C(C)(C)O)c(NC(=O)c4cccc(C(F)(F)F)n4)cc3s2)CC1 (some centres unmarked) [I-488] |
| 10 to 50 nM | COc1cc2nn([C@H]3CC[C@H](CN4CCN(c5cccc6c(N7CCC(=O)NC7=O)ncnc56)CC4)CC3)cc2cc1NC(=O)c1cccc(C(F)(F)F)n1 [I-380] |
| 10 to 50 nM | Cc1cccc(C(=O)Nc2cc3sc([C@H]4CC[C@H](C(=O)N5CC6(CCN(CCNc7cccc8c7C(=O)N(C7CCC(=O)NC7=O)C8=O)CC6)C5)CC4)nc3cc2C(C)(C)O)n1 (some centres unmarked) [I-468] |
| < 10 nM | COc1cc2nn([C@H]3CC[C@H](CN4CCC(c5cccc6c5n(C)c(=O)n6C5CCC(=O)NC5=O)CC4)CC3)cc2cc1NC(=O)c1cc(F)cc(C(F)(F)F)c1 (some centres unmarked) [I-132] |
| 100 to 200 nM | CC(C)(O)c1cc2nc([C@H]3CC[C@H](C(=O)N4CCC5(CC4)CC(CCNc4cccc6c4C(=O)N(C4CCC(=O)NC4=O)C6=O)C5)CC3)sc2cc1NC(=O)c1cccc(C(F)F)n1 (some centres unmarked) [I-457] |
| < 10 nM | Cn1c(=O)n(C2CCC(=O)NC2=O)c2cccc(C3CCN(C[C@H]4CC[C@H](n5cc6cc(NC(=O)c7cccc(C(F)(F)F)n7)c(C#N)cc6n5)CC4)CC3)c21 (some centres unmarked) [I-189] |
| < 10 nM | COc1cc2nn([C@H]3CC[C@@H](CN4CCN(CC#Cc5cccc6c5n(C)c(=O)n6C5CCC(=O)NC5=O)CC4)CC3)cc2cc1NC(=O)c1cccc(C(F)(F)F)n1 (some centres unmarked) [I-327] |
| > 200 nM | Cn1c(=O)n(C2CCC(=O)NC2=O)c2cccc(C3CCN(C[C@H]4CC[C@H](n5cc6cc(NC(=O)c7cncc(C#N)c7)c(OC(F)(F)F)cc6n5)CC4)CC3)c21 (some centres unmarked) [I-325] |
| 10 to 50 nM | CC(C)(O)c1cc2nc([C@H]3CC[C@H](C(=O)N4CCN(CCCNc5cccc6c5C(=O)N(C5CCC(=O)NC5=O)C6=O)CC4)CC3)sc2cc1NC(=O)c1cccc(C#N)n1 (some centres unmarked) [I-435] |
| 50 to 100 nM | CC(C)(O)c1cc2nc([C@H]3CC[C@H](CN4CC5(CC(CCNc6cccc7c6C(=O)N(C6CCC(=O)NC6=O)C7=O)C5)C4)CC3)[nH]c2cc1NC(=O)c1cccc(C(F)(F)F)n1 (some centres unmarked) [I-14] |
| < 10 nM | COc1cc2nn([C@H]3CC[C@H](CN4CCC(c5cccc6c5n(C)c(=O)n6C5CCC(=O)NC5=O)CC4)CC3)cc2cc1NC(=O)c1ccccc1F (some centres unmarked) [I-174] |
| 50 to 100 nM | CC(C)(O)c1cc2nc([C@H]3CC[C@H](C(=O)N4CCC(CCNc5cccc6c5C(=O)N(C5CCC(=O)NC5=O)C6=O)CC4)CC3)sc2cc1NC(=O)c1cccc(C(F)(F)F)n1 (some centres unmarked) [I-491] |
| < 10 nM | COc1ccc2c(c1C1CCN(C[C@H]3CC[C@H](n4cc5cc(NC(=O)c6cccc(C(F)(F)F)n6)ncc5n4)CC3)CC1)n(C)c(=O)n2C1CCC(=O)NC1=O (some centres unmarked) [I-83] |
| < 10 nM | COc1cc2nn([C@H]3CC[C@H](CN4CCC(c5cccc6c5n(C)c(=O)n6C5CCC(=O)NC5=O)CC4)CC3)cc2cc1NC(=O)c1cncc(C(F)(F)F)c1 (some centres unmarked) [I-86] |
